Here are results for 23 molecules from ChEMBL document CHEMBL4130568, “Benzoxaboroles as Efficient Inhibitors of the β-Carbonic Anhydrases from Pathogenic Fungi: Activity and Modeling Study” (ACS Med Chem Lett, 2017).

Experiment [1] can be described thus: Inhibition of Malassezia globosa beta-carbonic anhydrase incubated for 15 mins prior to testing by stopped flow CO2 hydrase assay.
The target of experiment [2] is T1, Carbonic anhydrase 2 (Cryptococcus neoformans, UniProt Q3I4V7).
T1 sequence (Q3I4V7 whole entry): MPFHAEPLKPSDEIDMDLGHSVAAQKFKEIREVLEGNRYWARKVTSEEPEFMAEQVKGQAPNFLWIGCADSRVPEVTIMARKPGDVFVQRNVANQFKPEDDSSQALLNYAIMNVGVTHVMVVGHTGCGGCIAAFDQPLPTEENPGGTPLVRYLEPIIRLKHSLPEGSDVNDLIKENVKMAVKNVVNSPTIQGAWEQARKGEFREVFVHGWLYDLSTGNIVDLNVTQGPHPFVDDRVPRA
Nature of the experiment: Inhibition of Cryptococcus neoformans Can2 incubated for 15 mins prior to testing by stopped flow CO2 hydrase assay.

Another experiment addresses T2, Carbonic anhydrase (Candida glabrata CBS 138, UniProt Q6FTL6).
T2 sequence (Q6FTL6 whole entry): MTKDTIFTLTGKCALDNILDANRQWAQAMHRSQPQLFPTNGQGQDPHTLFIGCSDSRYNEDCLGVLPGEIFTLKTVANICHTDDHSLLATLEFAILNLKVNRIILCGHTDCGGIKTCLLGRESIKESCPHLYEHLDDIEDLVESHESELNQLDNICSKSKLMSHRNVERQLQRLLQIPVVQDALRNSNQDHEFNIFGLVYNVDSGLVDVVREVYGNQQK
The experiment in a line: Inhibition of Candida glabrata Nce103 incubated for 15 mins prior to testing by stopped flow CO2 hydrase assay. Also noted: species or system Nakaseomyces glabratus.

The next experiment concerns the target Carbonic anhydrase 1 (Homo sapiens, UniProt P00915). Nature of the experiment: Inhibition of human carbonic anhydrase-1 incubated for 15 mins prior to testing by stopped flow CO2 hydrase assay.
Experiment [3] has as its target Carbonic anhydrase 2 (Homo sapiens, UniProt P00918). Nature of the experiment: Inhibition of human carbonic anhydrase-2 incubated for 15 mins prior to testing by stopped flow CO2 hydrase assay.

Sequence of Carbonic anhydrase 1 (P00915 whole entry): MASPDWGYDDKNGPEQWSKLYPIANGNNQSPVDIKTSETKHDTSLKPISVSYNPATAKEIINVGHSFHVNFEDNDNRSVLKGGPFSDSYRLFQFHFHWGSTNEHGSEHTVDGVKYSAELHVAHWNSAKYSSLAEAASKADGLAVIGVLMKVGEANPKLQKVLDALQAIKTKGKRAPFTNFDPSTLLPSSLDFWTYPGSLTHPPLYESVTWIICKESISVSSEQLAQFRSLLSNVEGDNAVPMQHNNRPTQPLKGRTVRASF

Usually Ki stands for the dissociation constant of the complex between target and ligand, obtained from inhibition or displacement. For `O=[N+]([O-])c1ccc2c(c1)B(O)OC2`, the Ki in experiment [1] stood at 91.3 µM; at Carbonic anhydrase 2 [2], 0.088 µM; on Carbonic anhydrase it was 0.089 µM; on Carbonic anhydrase 1, 6.35 µM; on Carbonic anhydrase 2 [3], 0.504 µM.
The like results for `O=[N+]([O-])c1ccc(NC(=S)Nc2ccc3c(c2)B(O)OC3)cc1` were, in that order, 8.68 µM, 0.079 µM, 0.096 µM, 0.385 µM and > 10 µM.
For the molecule `Cc1cc(Cl)cc(CNC(=O)Nc2ccc3c(c2)B(O)OC3)c1`, the figures for the Ki (in experiment [1]; on Carbonic anhydrase 2 [2]; on Carbonic anhydrase) were 86.8 µM, 0.4 µM and 0.079 µM, respectively.
Regarding `OB1OCc2ccc(NC(=S)Nc3ccccc3)cc21`, the Ki was 21.3 µM in experiment [1]; 0.198 µM on Carbonic anhydrase 2 [2]; 0.097 µM at Carbonic anhydrase; 0.532 µM at Carbonic anhydrase 1; 1.62 µM on Carbonic anhydrase 2 [3].
As to `OB1OCc2cc(F)ccc21` [TAVABOROLE], the Ki in experiment [1] was found to be 99 µM; on Carbonic anhydrase 2 [2], 0.089 µM; on Carbonic anhydrase, 0.072 µM; at Carbonic anhydrase 1, 2.02 µM; on Carbonic anhydrase 2 [3], 0.462 µM.
Consider `OB1OCc2ccc(NC(=S)NCCc3ccccc3)cc21`, for which the Ki worked out at 22.5 µM in experiment [1], 0.676 µM at Carbonic anhydrase 2 [2] and 0.467 µM on Carbonic anhydrase.
For `Nc1ccc2c(c1)B(O)OC2`, the Ki in experiment [1] worked out at 44.6 µM; on Carbonic anhydrase 2 [2], 0.093 µM; on Carbonic anhydrase it was 0.244 µM; at Carbonic anhydrase 1 it was 9.43 µM; at Carbonic anhydrase 2 [3], 0.59 µM.
For `CC(=O)c1ccc(NC(=O)Nc2ccc3c(c2)B(O)OC3)cc1`, the Ki worked out at 62.2 µM in experiment [1], 0.065 µM at Carbonic anhydrase 2 [2] and 0.203 µM on Carbonic anhydrase.
The like results for `O=C(Nc1ccc2c(c1)B(O)OC2)Nc1c(Cl)cc(Cl)cc1Cl` were, in that order, 98.6 µM, 0.073 µM and 0.081 µM.
For `OB1OCc2ccc(NC(=S)Nc3ccc4ccccc4c3)cc21`, in that order: 30.6 µM, 0.573 µM and 0.339 µM.
The like results for `Cc1ccc(NC(=S)Nc2ccc3c(c2)B(O)OC3)cc1` were, in that order, 24.9 µM, 0.181 µM and 0.089 µM.
Regarding `OB1OCc2ccc(NC(=S)Nc3ccc(C(F)(F)F)cc3)cc21`, the inhibitory constant (Ki) in experiment [1] was found to be 49.8 µM; at Carbonic anhydrase 2 [2], 0.275 µM; at Carbonic anhydrase, 0.112 µM; at Carbonic anhydrase 1, 0.417 µM; on Carbonic anhydrase 2 [3] it was 1.84 µM.
For `O=C(Nc1ccc(C(F)(F)F)cc1)Nc1ccc2c(c1)B(O)OC2`, in that order: 73.6 µM, 0.084 µM, 0.096 µM, 0.487 µM and 0.456 µM.
As for `O=C(Nc1ccccc1)Nc1ccc2c(c1)B(O)OC2`, the Ki in experiment [1] was found to be 63.7 µM; on Carbonic anhydrase 2 [2] it was 0.081 µM; at Carbonic anhydrase, 0.086 µM; at Carbonic anhydrase 1, 0.654 µM; at Carbonic anhydrase 2 [3] it was 0.73 µM.
For the molecule `O=C(NCc1ccccc1)Nc1ccc2c(c1)B(O)OC2`, the Ki in experiment [1] came to 58.2 µM; at Carbonic anhydrase 2 [2], 0.602 µM; on Carbonic anhydrase it was 0.201 µM; at Carbonic anhydrase 1, 0.557 µM; on Carbonic anhydrase 2 [3], 0.439 µM.
The like results for `O=C(Nc1ccc(F)cc1)Nc1ccc2c(c1)B(O)OC2` were, in that order, 76.2 µM, 0.078 µM, 0.075 µM, 0.235 µM and 0.48 µM.
Regarding `OB1OCc2ccc(NC(=S)Nc3ccc(F)cc3)cc21`, the Ki turned out to be 30.1 µM in experiment [1]; 0.086 µM at Carbonic anhydrase 2 [2]; 0.086 µM on Carbonic anhydrase; 0.355 µM at Carbonic anhydrase 1; 1.5 µM at Carbonic anhydrase 2 [3].
`COc1ccc(NC(=S)Nc2ccc3c(c2)B(O)OC3)cc1`: the Ki in experiment [1] was found to be 28.8 µM; at Carbonic anhydrase 2 [2], 0.089 µM; at Carbonic anhydrase it was 0.086 µM.
The like results for `OB1OCc2ccc(NC(=S)NCc3ccco3)cc21` were, in that order, 6.09 µM, 0.236 µM and 0.229 µM.
On to `O=C(Nc1ccc(Cl)cc1)Nc1ccc2c(c1)B(O)OC2`, for which the Ki was 77.9 µM in experiment [1], 0.092 µM on Carbonic anhydrase 2 [2] and 0.081 µM at Carbonic anhydrase.
Take `CC(=O)Nc1nnc(S(N)(=O)=O)s1` [ACETAZOLAMIDE]: affinity in experiment [1] was put at a Ki of […].
As to `O=C(NCc1ccco1)Nc1ccc2c(c1)B(O)OC2`, the values for the Ki (in experiment [1]; on Carbonic anhydrase 2 [2]; on Carbonic anhydrase) were 55.6 µM, 0.283 µM and 0.096 µM, respectively.
For `OB1OCc2ccccc21` [BENZOXABOROLE], in that order: 109 µM, 0.174 µM and 0.26 µM.
